This note sets out measurements from patent publication US4598077A, “Amidine derivatives and cardiotonic compositions” (Torii & Co. Ltd., priority 1983, dated 1986).

Counter-ions that a name gives are not always drawn. Like-named read-outs stand apart in the source and are kept apart here.

Experiment [1] relates to papillary muscle preparation. Briefly: Isolated, blood-perfused papillary muscle preparation, developed tension (Table 1). Set-up: species or system Mongrel dogs. The following applies: Canis lupus familiaris, close-arterial injection, read-out: Papillary muscle preparation, % increase in developed tension; for activation at 0.03 mg: dose 30 μg; for activation at 0.1 mg: dose 100 μg; for activation at 0.3 mg: dose 300 μg. As to the method: Mongrel dogs of either sex weighting 7.5-10 kg were anesthetized with sodium pentobarbital (30 mg/kg, i.v.). Each animal was given an intravenous dose of sodium heparin (500 units/kg), thereafter, the heart was removed and placed in cold Tyrode solution. The isolated and cross-circulated right atrium and papillary muscle preparations were arranged for perfusion from a donor dog as follows. The donor dog was also anesthetized with sodium pentobarbital (30 mg/kg, i.v.); heparin (500 units/kg) was given intravenously immediately before the perfusion began. (a) The isolated, blood-perfused papillary muscle preparation. The anterior septal artery was dissected and cannulated with polyethylene tubing. The tendinous end of the papillary muscle was connected to a strain-gauge transducer by a fine silk thread and the muscles were under about 2 g of resting tension. The papillary muscle preparation was electrically driven at a constant frequency of 120/min with rectangular pulses of 1-3 V and 5 msec duration. The preparation of the blood-perfused papillary muscle has been described in detail by Endoh and Hashimoto Am. J. Physiol, 218, 1459-1463 (1970). Each preparation was perfused with the arterial blood from the carotid artery of the donor dog at a constant perfusion pressure of 100 mmHg by means of a peristaltic pump. The venous effluent from the preparations was collected in a reservoir and returned to the donor dog through the jugular vein. Test compounds used in these experiments were dissolved in vehicle solution and were injected closearterially to the preparations. The effects of each compound on the developed tension and sinuo rate were evaluated as a percentage change in values determined before and after administration of the compound. In Table 1 are shown such changes in terms of the percentage increase after administration.

Another experiment concerns right atrium preparation. Briefly: Isolated, blood-perfused right atrium preparation, sinus rate (Table 1). Set-up: species or system Mongrel dogs. Particulars: Canis lupus familiaris, close-arterial injection, read-out: Right atrium preparation, % increase in sinus rate; for activation at 0.03 mg: dose 30 μg; for activation at 0.1 mg: dose 100 μg; for activation at 0.3 mg: dose 300 μg. How it is done: Mongrel dogs of either sex weighting 7.5-10 kg were anesthetized with sodium pentobarbital (30 mg/kg, i.v.). Each animal was given an intravenous dose of sodium heparin (500 units/kg), thereafter, the heart was removed and placed in cold Tyrode solution. The isolated and cross-circulated right atrium and papillary muscle preparations were arranged for perfusion from a donor dog as follows. The donor dog was also anesthetized with sodium pentobarbital (30 mg/kg, i.v.); heparin (500 units/kg) was given intravenously immediately before the perfusion began. (b) The isolated, blood-perfused right atrium preparation. The sinus node artery was cannulated at its origin in the right coronary artery. A right atrial electrogram was obtained from bipolar electrodes which were placed in close proximity to the sinoatrial node. The sinus rate was recorded by a cardiotachometer triggered by the right atrial electrogram. The details of the bloodperfused right atrium preparation have been described by Chiba et al. (Tohoku J. exp. Med., 107, 101-102 (1972) and Kubota and Hashimoto (Naunyn-Schmiedeberg's Arch. Pharmacol., 278, 135-150 (1973)). Each preparation was perfused with the arterial blood from the carotid artery of the donor dog at a constant perfusion pressure of 100 mmHg by means of a peristaltic pump. The venous effluent from the preparations was collected in a reservoir and returned to the donor dog through the jugular vein. Test compounds used in these experiments were dissolved in vehicle solution and were injected closearterially to the preparations. The effects of each compound on the developed tension and sinuo rate were evaluated as a percentage change in values determined before and after administration of the compound. In Table 1 are shown such changes in terms of the percentage increase after administration.

The test system of experiment [2] is anesthetized open-chest dogs. Description: Cardiovascular effect in anesthetized open-chest dogs (Table 2). Type of experiment: in vivo, Mongrel dogs. The following applies: femoral vein; for change in vivo at 0.1 mg/kg / change in vivo at 0.3 mg/kg / change in vivo at 0.01 mg/kg / change in vivo at 0.03 mg/kg: Canis lupus familiaris, iv. How it is done: Mongrel dogs of either sex weighing 9-15 kg were anesthetized with sodium pentobarbital (30 mg/kg, i.v.). The heart was exposed by thoractomy by the left fifth intercostal incision under artificial respiration. Aortic flow was measured by the probe of electromagnetic flowmeter placed around the ascending aorta. Myocardial contractility was measured by the maximal rate of rise of left ventricular pressure which was recorded from a needle inserted into the ventricular cavity. The systemic blood pressure was measured with a pressure transducer by means of a polyethylene cannular inserted into the femoral artery. The heart rate was recorded by a cardiotrachometer triggered by R wave of electrocargiogram (Lead II). Test compounds were dissolved in vehicle solution and were injected into the femoral vein. The effects of each compound on the cardiac contractility and aortic flow were evaluated as a percentage change in values determined before and after administration of the compound. In Table 2 are shown such changes in terms of the percentage increase after administration.

[3] abbreviates: 0.1 mg/kg, read-out: Increase in aortic flow (%).
[4] abbreviates: 0.1 mg/kg, read-out: Increase in cardiac contractility (%).
[5] abbreviates: 0.3 mg/kg, read-out: Increase in aortic flow (%).
Setting [6] is: 0.3 mg/kg, read-out: Increase in cardiac contractility (%).
[7] abbreviates: read-out: Increase in aortic flow (%).
Setting [8] is: read-out: Increase in cardiac contractility (%).

Take `CNC(=N)c1ccc(CCc2ccc(CN)cc2)cc1` [Compound 1, 4-[2-(4-aminomethylphenyl)ethyl]-N-methylbenzamidine dihydrochloride]: the activation at 0.03 mg came out at 44.1% in experiment [1] and 26.2% in the experiment with right atrium preparation. For the same molecule, the activation at 0.1 mg in experiment [1] came to 78.1%; in the experiment with right atrium preparation it was 34.1%. The results for the change in vivo at 0.1 mg/kg in experiment [2] (setting [3]) and in experiment [2] (setting [4]) were 30.4% and 42.1%, respectively. The change in vivo at 0.3 mg/kg came to 38.8% in experiment [2] (setting [5]) and 57.5% in experiment [2] (setting [6]).

In the case of `CNC(=N)c1ccc(CCc2ccc(CN)cc2OC)cc1` [Compound 3, 4-[2-(4-Aminomethyl-2-methoxyphenyl)ethyl]-N-methylbenzamidine dihydrochloride], in experiment [1], the activation at 0.03 mg worked out at 73.3% and the activation at 0.1 mg came to 115%. In addition, in the experiment on right atrium preparation, the activation at 0.03 mg was 17.9% and the activation at 0.1 mg was 32.5%. Further, in experiment [2] (setting [7]), the change in vivo at 0.01 mg/kg stood at 4.1% and the change in vivo at 0.03 mg/kg came out at 21.7%. In addition, in experiment [2] (setting [8]), the change in vivo at 0.01 mg/kg is 14% and the change in vivo at 0.03 mg/kg was 24.6%.

In the case of `CCCCNC(=N)c1ccc(CCc2ccc(CN)cc2)cc1.Cl.Cl` [Compound 4, 4-[2-(4-Aminomethylphenyl)ethyl]-N-n-butyl-benzamidine dihydrochloride], the results for the activation at 0.03 mg (in experiment [1]; with right atrium preparation) were 45.8% and 19%, respectively. The activation at 0.1 mg in experiment [1] turned out to be 76.5%; in the experiment with right atrium preparation it was 30.6%. Also, the “% decrease in cardiac contractility (in parentheses)” value (“% decrease in cardiac contractility” below) in experiment [2] (0.3 mg/kg) is -3.4%. The change in vivo at 0.1 mg/kg in experiment [2] (setting [3]) came to 20%; in experiment [2] (setting [4]), 26.1%. Also, the change in vivo at 0.3 mg/kg stood at 50% in experiment [2] (setting [5]) and 52.9% in experiment [2] (setting [6]).

Take `N=C(NCCc1ccccn1)c1ccc(CCc2ccc(CN)cc2)cc1` [Compound 6, 4-[2-(4-Aminomethylphenyl)ethyl]-N-[2-(2-pyridyl)ethyl]benzamidine trihydrochloride]: the activation at 0.1 mg in experiment [1] was 57.7%; with right atrium preparation, 7.5%. Moreover, the activation at 0.3 mg in experiment [1] was 93.5%; in the experiment with right atrium preparation, 18.3%. The figures for the change in vivo at 0.03 mg/kg in experiment [2] (setting [7]) and in experiment [2] (setting [8]) were 1.8% and 5.2%, respectively. The figures for the change in vivo at 0.1 mg/kg in experiment [2] (setting [3]) and in experiment [2] (setting [4]) were 6.5% and 18%, respectively.

As to `CNC(=N)c1ccc(C=Cc2ccc(CN)cc2)cc1` [Compound 7, 4-[2-(4-aminomethylphenyl)ethenyl]-N-methylbenzamidine dihydrochloride], the activation at 0.1 mg in experiment [1] turned out to be 44.7%; in the experiment on right atrium preparation, 8.3%. Further, the values for the activation at 0.3 mg (in experiment [1]; with right atrium preparation) were 66% and 28.2%, respectively. Besides, the change in vivo at 0.1 mg/kg in experiment [2] (setting [3]) was found to be 4.2%; in experiment [2] (setting [4]), 3.1%. Moreover, the change in vivo at 0.3 mg/kg in experiment [2] (setting [5]) was found to be 13.8%; in experiment [2] (setting [6]), 16.7%.

For `CC(=O)O.N=C(N)c1ccc(OCc2ccc(CN)cc2)c(C(=O)c2ccccc2)c1` [Compound 9, 4-(4-Aminomethylbenzyloxy)-3-benzoylbenzamidine acetate], the activation at 0.1 mg in experiment [1] is 52.2%; with right atrium preparation it was 15.5%. In addition, the activation at 0.3 mg in experiment [1] was determined as 71.7%; with right atrium preparation it was 24.3%. Moreover, the “% decrease in aortic flow (in parentheses)” value in experiment [2] (0.1 mg/kg) is given as -7.9%. In experiment [2] (0.1 mg/kg), the “% decrease in cardiac contractility” value is reported as -7.1%. The change in vivo at 0.1 mg/kg was 3.9% in experiment [2] (setting [3]) and 12.5% in experiment [2] (setting [4]).

`CNC(=N)c1ccc(OCc2ccc(CN)cc2)cc1` [Compound 10, 4-(4-Aminomethylbenzyloxy)-N-methylbenzamidine dihydrochloride]: the activation at 0.1 mg in experiment [1] came out at 27.9%; in the experiment on right atrium preparation, 11.6%. Moreover, the activation at 0.3 mg worked out at 54.4% in experiment [1] and 17.9% with right atrium preparation. For the same molecule, the results for the change in vivo at 0.3 mg/kg in experiment [2] (setting [5]) and in experiment [2] (setting [6]) were 2.5% and 8.7%, respectively.

Regarding `N=C(N)c1ccc(OCc2ccc(CCCN)cc2)c(C(=O)c2ccccc2)c1` [Compound 11, 4-[4-(3-Aminopropyl)benzyloxy]-3-benzoylbenzamidine dihydrochloride], the activation at 0.03 mg in experiment [1] is 48.8%; in the experiment with right atrium preparation it was 32%. The activation at 0.1 mg was 82.5% in experiment [1] and 71.4% in the experiment with right atrium preparation. For the same molecule, the figures for the change in vivo at 0.1 mg/kg in experiment [2] (setting [3]) and in experiment [2] (setting [4]) were 7.5% and 14.3%, respectively.

As for `CNC(=N)c1ccc(OCc2ccc(C=CCN)cc2)c(C(=O)c2ccccc2)c1` [Compound 12, 4-[4-(3-amino-1-propenyl)benzyloxy]-3-benzoyl-N-methylbenzamidine dihydrochloride], the activation at 0.03 mg in experiment [1] worked out at 46.2%; with right atrium preparation, 23.3%. Further, the figures for the activation at 0.1 mg (in experiment [1]; in the experiment on right atrium preparation) were 77.8% and 31.6%, respectively. Moreover, the change in vivo at 0.03 mg/kg in experiment [2] (setting [7]) stood at 6.1%; in experiment [2] (setting [8]), 18.8%. Also, the change in vivo at 0.1 mg/kg in experiment [2] (setting [3]) came out at 8.7%; in experiment [2] (setting [4]) it was 40%.

As for `CNC(=N)c1ccc(CCc2ccc(CN)cc2[N+](=O)[O-])cc1` [Compound 13, N-Methyl-4-[2-(4-aminomethyl-2-nitrophenyl)ethyl]benzamidine dihydrochloride], the activation at 0.03 mg in experiment [1] stood at 64.2%; in the experiment with right atrium preparation, 32.3%. Moreover, the activation at 0.1 mg in experiment [1] came out at 95.5%; in the experiment with right atrium preparation, 35.9%. In addition, the change in vivo at 0.03 mg/kg worked out at 5.7% in experiment [2] (setting [7]) and 29% in experiment [2] (setting [8]). The change in vivo at 0.1 mg/kg in experiment [2] (setting [3]) was 12.1%; in experiment [2] (setting [4]), 66.7%.

As to `Br.Br.CN=C(NC)c1ccc(CCc2ccc(CN)cc2)cc1` [Compound 14, N,N'-Dimethyl-4-[2-(4-aminomethylphenyl)ethyl]benzamidine dihydrobromide], the activation at 0.03 mg in experiment [1] is 59%; in the experiment with right atrium preparation, 28.9%. For the same molecule, the activation at 0.1 mg in experiment [1] turned out to be 100%; with right atrium preparation, 31.8%. Besides, in experiment [2] (0.3 mg/kg), the “% decrease in aortic flow (in parentheses)” value is on record as -16.3%. Besides, the “% decrease in cardiac contractility” value in experiment [2] (0.3 mg/kg) is recorded as -6.8%. Moreover, the change in vivo at 0.1 mg/kg in experiment [2] (setting [3]) was determined as 8.7%; in experiment [2] (setting [4]), 30%. In addition, the change in vivo at 0.3 mg/kg in experiment [2] (setting [5]) was determined as 32.7%; in experiment [2] (setting [6]) it was 47.5%.
